Results reported in patent US20260325654A1, “METHODS AND COMPOSITIONS FOR TARGETED PROTEIN DEGRADATION” (Ranok Therapeutics (Hangzhou) Co. Ltd., priority 2023, published 2026).
pIC50: −log10 of the molar value. Counter-ions that a name gives are not always drawn.

Assays:
[1] = test system: SW1990; test: CellTiter-Glo Reagent cancer cell line proliferation assay, SW1990; assay type: cell-based; conditions: Homo sapiens; SW1990, KRAS(G12D) homozygous, 24 hr
Source text: (§1) The following cancer cell lines were employed: • AsPC-1 human pancreatic adenocarcinoma, homozygous KRAS(G12D), (ATCC, #CRL-1682); A-427 human lung carcinoma, heterozygous KRAS(G12D), (ATCC, #HTB-53); AGS human gastric adenocarcinoma, heterozygous KRAS(G12D), (ATCC, #CRL-1739); GP2D human colon adenocarcinoma, heterozygous KRAS(G12D), (Sigma Aldrich, 95090714); SW1990 human pancreatic adenocarcinoma, homozygous KRAS(G12D), (ATCC, #CRL2172); LU65A human lung giant cell carcinoma, heterozygous KRAS(G12C), (JCRB Cell Bank, #JCRB0054); NCIH727 human lung carcinoid, heterozygous KRAS(G12V), (ATCC, #CRL-5815); MKN1 human gastric adenosquamous carcinoma KRAS (wt), (JCRB Cell Bank, #JCRB0252). Cell lines were cultured according to ATCC, JCRB and Sigma Aldrich recommendations.
(§2) Cells were plated in 96-well tissue culture plates at 4,000 cells/well and incubated at 37° C./5% CO2 for 24 hr in 100 μl of media. 3-fold serial dilutions of each test compound were prepared ranging from 20 μM to 1.02 nM. Cells were then treated with test compounds at various concentrations with a final concentration of 0.5% DMSO/well, and then incubated at 37° C./5% CO2 for 24 hr. 100 μl of CellTiter-Glo® Reagent (Promega Corporation, Madison, WI) was added to each well and processed according manufacturer's protocol. Results were analyzed and IC50-values were calculated in GraphPad 7 software.

[2] = target: KRAS(G12D) (Homo sapiens, UniProt P01116, G12D); test: cell-based; assay type: cell-based; set-up: Cell lines SW1990 and GP2D that express KRAS(G12D); host or cells: SW1990
Procedure: Cell lines were cultured according to ATCC, JCRB and Sigma Aldrich recommendations.
(§3) Cells were then washed with cold PBS, aspirated and cold RIPA buffer containing a protease/phosphatase inhibitor cocktail was added to lyse cells. After centrifugation, the total protein concentrations of cell lysates were determined using the BCA protein assay. Samples were normalized for equivalent protein concentrations, 5× SDS-PAGE loading buffer added and denatured at 100° C. for 10 min. 20 μl of each sample/well was loaded on a SDS-PAGE gel and electrophoresed for 20 min at 80 V, then 120 V for 1.5 hr. Gels were then electroblotted to nitrocellulose membranes using a wet-transfer method at 250 mA for 2.5 hr. Membranes were incubated with blocking buffer for 1 hr and washed 3 times with TBST for 5 min. Membranes were then incubated with anti-KRAS (Sigma-Aldrich, #SAB1404011) and anti-β-Actin monoclonal antibodies (Cell Signaling Technology, #3700) diluted in blocking buffer at 4° C. overnight per the manufacturer's recommendations. After washing 3 times, blots were incubated with appropriately labeled secondary antibodies for 1 hr at room temperature and washed again. Fluorescence imaging and quantitation was performed using a LI-COR Odyssey. Results was analyzed using GraphPad Prism 7 software. Compound concentrations that induced KRAS degradation (DC50 and DCmax) were calculated using GraphPad Prism 7 software.

[3] = test system: AGS; test: CellTiter-Glo Reagent cancer cell line proliferation assay, AGS; assay type: cell-based, human; conditions: Homo sapiens, 24 h, KRAS(G12D) heterozygous
In short: (§4)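 Cells were seeded at 4,000 per well, grown 24 hr at 37° C./5% CO2, then exposed 24 hr to 3-fold dilutions from 20 μM to 1.02 nM (0.5% DMSO final). Viability was read with CellTiter-Glo luminescence, and IC50 values were calculated.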

[4] = test system: GP2D; test: CellTiter-Glo Reagent cancer cell line proliferation assay, GP2D; assay type: cell-based; conditions: Homo sapiens, KRAS(G12D) heterozygous, 24 hr
Source text: as §1, §2

[5] = test system: LU65A; test: CellTiter-Glo Reagent cancer cell line proliferation assay, LU65A; assay type: cell-based, human; conditions: Homo sapiens, 24 h, KRAS(G12C) heterozygous
In short: as §4

[6] = test system: NCIH727; test: CellTiter-Glo Reagent cancer cell line proliferation assay, NCIH727; assay type: cell-based, human; conditions: Homo sapiens, NCI-H727, 24 h, NCIH727, KRAS(G12V) heterozygous
In short: as §4

[7] = test system: MKN1; test: CellTiter-Glo Reagent cancer cell line proliferation assay, MKN1; assay type: cell-based; conditions: Homo sapiens, MKN-1; MKN1, KRAS (wt), 24 hr
Source text: as §1, §2

[8] = target: T1, KRAS(G12C) (Homo sapiens, UniProt P01116, G12C); test: KRAS Western Blot Protein Degradation Assay, LU65A; assay type: cell-based; conditions: 24 hr; for DC50: read-out: WB data LU65A DC50; for Dmax: read-out: WB data LU65A DMax
T1 construct: LU65A that expresses KRAS(G12C); host or cells: LU65A
Source text: as §1
as §3, with “Cell lines SW1990 and GP2D that express KRAS(G12D), LU65A that expresses KRAS(G12C), and NCIH727 that expresses KRAS(G12V) were seeded in 6- or 12-well tissue culture plates, and after 1 hr, test compounds were added at various concentrations and incubated at 37° C./5% CO2 for 24 hr. Cells” for “Cells”

[9] = target: T2, KRAS(G12V) (Homo sapiens, UniProt P01116, G12V); test: KRAS Western Blot Protein Degradation Assay, NCIH727; assay type: cell-based; conditions: for DC50: 24 hr, read-out: WB data NCIH727 DC50; for Dmax: NCI-H727, 24 hr, read-out: WB data NCIH727 DMax
T2 construct: anti-KRAS Western blot degradation by PROTACs recruiting CRBN or VHL
Source text: as §1
as §3, with “Cell lines SW1990 and GP2D that express KRAS(G12D), LU65A that expresses KRAS(G12C), and NCIH727 that expresses KRAS(G12V) were seeded in 6- or 12-well tissue culture plates, and after 1 hr, test compounds were added at various concentrations and incubated at 37° C./5% CO2 for 24 hr. Cells” for “Cells”

T2 sequence (P01116 1-188 isoform P01116-2 G12V): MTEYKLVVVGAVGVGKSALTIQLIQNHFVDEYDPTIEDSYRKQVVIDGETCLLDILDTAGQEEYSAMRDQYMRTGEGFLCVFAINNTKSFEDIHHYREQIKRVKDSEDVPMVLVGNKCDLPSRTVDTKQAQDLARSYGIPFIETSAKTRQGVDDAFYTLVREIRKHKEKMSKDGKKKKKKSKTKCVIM
T1 sequence (P01116 1-185 isoform P01116-2 G12C limits assumed): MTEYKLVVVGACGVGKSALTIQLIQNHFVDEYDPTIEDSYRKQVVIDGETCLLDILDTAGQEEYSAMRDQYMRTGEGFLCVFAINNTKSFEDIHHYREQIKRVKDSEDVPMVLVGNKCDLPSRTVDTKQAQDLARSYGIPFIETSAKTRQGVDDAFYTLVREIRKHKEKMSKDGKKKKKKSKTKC
KRAS(G12D), sequence (P01116 1-188 isoform P01116-2 G12D): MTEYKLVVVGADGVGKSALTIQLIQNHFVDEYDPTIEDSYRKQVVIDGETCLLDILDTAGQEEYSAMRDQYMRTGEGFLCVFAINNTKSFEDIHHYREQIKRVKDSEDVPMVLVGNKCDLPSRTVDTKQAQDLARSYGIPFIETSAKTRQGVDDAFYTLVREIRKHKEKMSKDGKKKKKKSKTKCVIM

Row | SMILES | pIC50 [1] | pIC50 [3] | pIC50 [4] | pIC50 [5] | pIC50 [6] | pIC50 [7] | DC50 [8] [nM] | Dmax [8] [%] | DC50 [9] [nM] | Dmax [9] [%] | Dmax ([2]; SW1990, read-out: WB data SW1990 DMax) [%] | DC50 ([2]; read-out: WB data SW1990 DC50, SW1990, KRAS degradation, 24 hr) [nM]
1 | C#Cc1c(F)ccc2cc(O)cc(-c3ncc4c(N5CC6CCC(C5)N6C(=O)C(F)(F)F)nc(OCC5(CN6CCN(CC7CCN(c8ccc9c(c8)CN(C8CCC(=O)NC8=O)C9=O)CC7)CC6)CC5)nc4c3F)c12 (stereo not drawn) [Compound 78] | > 7.00 |  |  |  |  |  |  |  |  |  | 10 to 50 | 100 to 1000
2 | C#Cc1c(F)ccc2cc(O)cc(-c3ncc4c(N5C[C@H]6CC[C@@H](C5)N6)nc(OCC5(CN(C)Cc6ccc(C7CN(c8ccc9c(c8)CN(C8CCC(=O)NC8=O)C9=O)C7)cc6)CC5)nc4c3F)c12 (stereo partly drawn) [Compound 92, 3-(5-(3-(4-((((1-(((4-((1R,5S)-3,8-diazabicyclo[3.2.1]octan-3-yl)-7-(8-ethynyl-7-fluoro-3-hydroxynaphthalen-1-yl)-8-fluoropyrido[4,3-d]pyrimidin-2-yl)oxy)methyl)cyclopropyl)methyl)(methyl)amino)methyl)phenyl)azetidin-1-yl)-1-oxoisoindolin-2-yl) piperidine-2,6-dione formate] | > 7.00 | > 7.00 | > 7.00 |  |  |  |  |  |  |  |  | 
3 | C#Cc1c(F)ccc2cc(O)cc(-c3ncc4c(N5CC6CCC(C5)N6)nc(OCC5(CN6CCC(C#Cc7ccc8c(c7)CN(C7CCC(=O)NC7=O)C8=O)CC6)CC5)nc4c3F)c12 (stereo not drawn) [Compound 91] | 6.00 to 7.00 | > 7.00 | > 7.00 |  |  |  |  |  |  |  |  | 
4 | C#Cc1c(F)ccc2cc(O)cc(-c3nc(OC)c4c(N5CC6CCC(C5)N6C(=O)CC#N)nc(OCC5(CN6CCN(CC7CCN(c8ccc9c(c8)CN(C8CCC(=O)NC8=O)C9=O)CC7)CC6)CC5)nc4c3F)c12 (stereo not drawn) [Compound 102] |  | < 6.00 | 6.00 to 7.00 | 6.00 to 7.00 | 6.00 to 7.00 | 6.00 to 7.00 | > 1000 | 10 to 50 | < 100 | > 50 |  | 
5 | O=CO.[2H]C([2H])([2H])Oc1nc(-c2cc(O)cc3ccc(F)c(C#C)c23)c(F)c2nc(OCC3(CN4CCN(CC5CCN(c6ccc7c(c6)CN(C6CCC(=O)NC6=O)C7=O)CC5)CC4)CC3)nc(N3CC4CCC(C3)N4C(=O)CCC#N)c12 (stereo not drawn) [Compound 114] |  | > 7.00 | > 7.00 | > 7.00 | > 7.00 | 6.00 to 7.00 | < 100 | > 50 | < 100 | > 50 |  | 
6 | O=CO.[2H]C([2H])([2H])Oc1nc(-c2cc(O)cc3ccc(F)c(C#C)c23)c(F)c2nc(OCC3(CN4CCN(CC5CCN(c6ccc7c(c6)CN(C6CCC(=O)NC6=O)C7=O)CC5)CC4)CC3)nc(N3CC4CCC(C3)N4C(=O)CC(C)C#N)c12 (stereo not drawn) [Compound 115] |  | > 7.00 | > 7.00 | > 7.00 | > 7.00 | < 6.00 | < 100 | > 50 | < 100 | > 50 |  | 
7 | C#Cc1c(F)ccc2cc(O)cc(-c3ncc4c(N5CC6CCC(C5)N6C(=O)CC#N)nc(OCC5(CN6CCN(CC7CCN(c8ccc9c(c8)CN(C8CCC(=O)NC8=O)C9=O)CC7)CC6)CC5)nc4c3F)c12 (stereo not drawn) [Compound 80] |  |  |  | 6.00 to 7.00 | > 7.00 |  | < 100 | > 50 | 100 to 1000 | > 50 |  | 
8 | C#Cc1c(F)ccc2cc(O)cc(-c3ncc4c(N5CCN(C(=O)CC#N)[C@@H](CC#N)C5)nc(OCC5(CN6CCN(CC7CCN(c8ccc9c(c8)CN(C8CCC(=O)NC8=O)C9=O)CC7)CC6)CC5)nc4c3F)c12 (stereo partly drawn) [Compound 103, 3-((2S)-2-(cyanomethyl)-4-(2-((1-((4-((1-(2-(2,6-dioxopiperidin-3-yl)-1-oxoisoindolin-5-yl)piperidin-4-yl)methyl)piperazin-1-yl)methyl)cyclopropyl)methoxy)-7-(8-ethynyl-7-fluoro-3-hydroxynaphthalen-1-yl)-8-fluoropyrido[4,3-d]pyrimidin-4-yl)piperazin-1-yl)-3-oxopropanenitrile] |  | < 6.00 | < 6.00 | < 6.00 | < 6.00 | < 6.00 | > 1000 | 10 to 50 | > 1000 | > 50 |  | 

More lines, main results first:

Row | pIC50 [1] | pIC50 [3] | pIC50 [4] | pIC50 [5] | pIC50 [6] | pIC50 [7] | DC50 [8] [nM] | Dmax [8] [%] | DC50 [9] [nM] | Dmax [9] [%] | SMILES | Dmax ([2]; SW1990, read-out: WB data SW1990 DMax) [%] | DC50 ([2]; read-out: WB data SW1990 DC50, SW1990, KRAS degradation, 24 hr) [nM]
9 |  | 6.00 to 7.00 | 6.00 to 7.00 | > 7.00 | > 7.00 | 6.00 to 7.00 | < 100 | > 50 | < 100 | > 50 | C#Cc1c(F)ccc2cc(O)cc(-c3ncc4c(N5CC6CCC(C5)N6C(=O)C(C)C#N)nc(OCC5(CN6CCN(CC7CCN(c8ccc9c(c8)CN(C8CCC(=O)NC8=O)C9=O)CC7)CC6)CC5)nc4c3F)c12 (stereo not drawn) [Compound 108] |  | 
10 |  | < 6.00 | 6.00 to 7.00 | 6.00 to 7.00 | < 6.00 | 6.00 to 7.00 | 100 to 1000 | > 50 | < 100 | > 50 | C#Cc1c(F)ccc2cc(O)cc(-c3ncc4c(N5CC6CCC(C5)N6C(=O)C5(C#N)CC5)nc(OCC5(CN6CCN(CC7CCN(c8ccc9c(c8)CN(C8CCC(=O)NC8=O)C9=O)CC7)CC6)CC5)nc4c3F)c12 (stereo not drawn) [Compound 107] |  | 
11 |  | < 6.00 | 6.00 to 7.00 | < 6.00 | < 6.00 | > 7.00 | > 1000 | 10 to 50 | > 1000 | 10 to 50 | C#Cc1c(F)ccc2cc(O)cc(-c3ncc4c(N5CC6CCC(C5)N6C(=O)C(C)(C)C#N)nc(OCC5(CN6CCN(CC7CCN(c8ccc9c(c8)CN(C8CCC(=O)NC8=O)C9=O)CC7)CC6)CC5)nc4c3F)c12 (stereo not drawn) [Compound 106] |  | 
